Experimental data from PMC7144120, “Psoralen Derivatives as Inhibitors of Mycobacterium tuberculosis Proteasome” (Molecules, 2020).
Entries after “also recorded” stand apart in the source; their conditions may differ. Where two headings read alike, the source gives them in different places.

How the values were obtained:
[1] = target: T1, Mtb proteasome (Mycobacterium tuberculosis, UniProt P9WHT9); format: biochemical; settings: for Reversibility of inhibition: Mtb proteasome, 100-fold dilution after preincubation; for Reversibility of inhibition at lower concentrations: concentrations ≤ IC50
T1 construct: made in house
T1 sequence (P9WHT9 whole entry, looked up): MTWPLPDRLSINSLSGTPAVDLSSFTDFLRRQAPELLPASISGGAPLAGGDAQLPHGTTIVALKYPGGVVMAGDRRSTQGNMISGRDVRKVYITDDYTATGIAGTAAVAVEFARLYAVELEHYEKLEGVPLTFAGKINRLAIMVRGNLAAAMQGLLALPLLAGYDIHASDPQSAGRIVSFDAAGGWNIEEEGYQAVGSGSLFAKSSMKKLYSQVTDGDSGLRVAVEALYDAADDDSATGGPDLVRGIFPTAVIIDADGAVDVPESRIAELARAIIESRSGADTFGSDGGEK

[2] = target: T1, Mtb proteasome; assay: Determination of Ki and type of inhibition (varied substrate concentration, GraphPad Prism model fit); format: biochemical; settings: for Ki: best scoring inhibition model; for Type of Inhibition: best ranking model (mixed, competitive, noncompetitive, uncompetitive)
Description: The concentrations of 11, 13 and 15 were 0, 0.56, 0.81, 1.15, 1.65, 2.35, 4.80, 9.80 and 20 µM. Further, the concentrations for compound 8 were 0, 1.65, 2.35, 4.80, 9.80 µM and for bortezomib 0, 0.28, 0.40, 0.58, 0.82, 1.18, 2.40, 4.90 and 10 µM. All experiments were performed in triplicate. The resulting data were analyzed using the GraphPad Prism 6 software and were fitted to the software provided models for competitive, noncompetitive, uncompetitive and mixed type enzyme inhibition. The mode of inhibition and Ki values were chosen from the best ranking model, as determined by the software. Representative graphs (Michaelis-Menten, Dixon and Lineweaver-Burk plots) depicting the data fit for the best ranking model of inhibition for all compounds are shown in the Supplementary data (Figures S2–S19).

[3] = system: ß5i of IP; settings: cited from earlier work; for IC50: read-out: IC50 against ß5i of IP; for RA at 10 µM against ß5i of IP: residual activity of β5i in the presence of 10 μM compound; for Ki: read-out: Ki against ß5i of IP
[4] = target: T1, Mtb proteasome; assay: biochemical; format: biochemical; settings: for IC50: 50 µM Suc-LLVY-AMC, 30 min preincubation, 37 °C, triplicate, read-out: IC50 against the Mtb proteasome; for Hill Coefficient: from IC50 curve, Mtb proteasome

Structure (SMILES)	RA at 10 µM against ß5i of IP [3] [%]	RA at 100 µM against Mtb [4] [%]	also measured
Cc1cc(-c2coc3cc4oc(=O)c(CC(=O)ON5C(=O)CCC5=O)c(C)c4cc23)c(C)s1 [Compound 13]			Reversibility of inhibition [1]: partially reversible inhibition; also recorded: (Partially) reversible inhibition; Reversibility of inhibition at lower concentrations [1]: reversible inhibition; Ki ([2]; Ki): 1.1 µM; Type of Inhibition [2]: mixed type of inhibition; IC50 [3]: 4.4 µM; IC50 [4]: 3.2 ± 0.3 µM; Hill Coefficient [4]: 0.90
Cc1c(CCC(=O)ON2C(=O)CCC2=O)c(=O)oc2cc3occ(-c4ccco4)c3cc12 [Compound 11]			Reversibility of inhibition [1]: partially reversible inhibition; also recorded: (Partially) reversible inhibition; Reversibility of inhibition at lower concentrations [1]: reversible inhibition; α (mixed inhibition model) [2]: 6.67; Ki ([2]; Ki): 4.2 µM; Type of Inhibition [2]: mixed type of inhibition; IC50 [3]: 0.94 µM; IC50 [4]: 8.8 ± 1 µM; Hill Coefficient [4]: 0.90
CC(C)C[C@H](NC(=O)[C@H](Cc1ccccc1)NC(=O)c1cnccn1)B(O)O [Bortezomib, reference compound]			proteasome activity retained ([1]; 5 × IC50 concentration, 0-, 15-, 30- or 60-min preincubation at 25 °C): approximately 55%; Reversibility of inhibition [1]: (Slow) reversible inhibition; Reversibility of inhibition ([1]; listed as bortezomib): “slow/partially” reversible; loss of enzyme activity compared to the DMSO control ([1]; concentrations equal or higher than IC50, longer preincubation time): ≤ 45%; α (mixed inhibition model) [2]: 0.85; Ki ([2]; Ki): 0.133 µM; Type of Inhibition [2]: Mixed inhibition; Type of Inhibition ([2]; listed as bortezomib): mixed type of inhibition; IC50 [3]: 0.004 µM; IC50 [4]: 0.11 ± 0.03 µM; Hill Coefficient [4]: 0.76
Cc1c(CC(=O)ON2C(=O)CCC2=O)c(=O)oc2cc3occ(-c4ccco4)c3cc12 [Compound 77]	44	56	
Cc1c(CCC(=O)O)c(=O)oc2c(C)c3occ(-c4ccc(Cl)cc4)c3cc12 [Compound 38]	89	47	
Cc1c(CCC(=O)O)c(=O)oc2cc3occ(-c4ccccc4)c3cc12 [Compound 16]		72	IC50 [3]: 1.6 µM; Ki [3]: 1.6 ± 0.7 µM; inhibition of the Mtb proteasome [4]: did not inhibit
Cc1c(CCC(=O)O)c(=O)oc2c(C)c3occ(-c4ccc(Br)cc4)c3cc12 [Compound 5]	93		IC50 [4]: 17 ± 3 µM; Hill Coefficient [4]: 0.70
Cc1c(CCC(=O)O)c(=O)oc2cc3c(cc12)C(c1ccccc1)CO3 (racemic) [Compound 91]	94	95	
Cc1c(CCC(=O)N(C)CC#N)c(=O)oc2cc3occ(-c4ccco4)c3cc12 [Compound 44]	86	82	
Cc1cc(-c2coc3cc4oc(=O)c(CC(=O)N(C)CC#N)c(C)c4cc23)c(C)s1 [Compound 55]	103	88	
Cc1c(C(=O)O)c(=O)oc2cc3occ(-c4ccccc4)c3cc12 [Compound 6]	82		IC50 [4]: 2.2 ± 0.3 µM; Hill Coefficient [4]: 0.70
Cc1c(NC(=O)CC#N)c(=O)oc2cc3occ(-c4ccccc4)c3cc12 [Compound 85]	115	93	
Cc1c(CCC(=O)NCC#N)c(=O)oc2cc3occ(C(C)(C)C)c3cc12 [Compound 8]	100		Reversibility of inhibition [1]: reversible inhibitors; also recorded: Reversible inhibition; α (mixed inhibition model) [2]: 0.19; Ki ([2]; Ki): 5.6 µM; Type of Inhibition [2]: mixed type of inhibition; IC50 [4]: 3.7 ± 1.5 µM; Hill Coefficient [4]: 1.05
Cc1c(CC(=O)N(C)CC#N)c(=O)oc2cc3occ(-c4ccc(Br)cc4)c3cc12 [Compound 52]	86	70	
Cc1c(CC(=O)NCC#N)c(=O)oc2cc3occ(-c4ccccc4)c3cc12 [Compound 59]	101	92	
Cc1c(CC(=O)N(C)CC#N)c(=O)oc2cc3occ(C4CCCCC4)c3cc12 [Compound 58]	101	100	
Cc1c(CC(=O)ON2C(=O)CCC2=O)c(=O)oc2cc3occ(-c4ccc(Br)cc4)c3cc12 [Compound 74]	101	61	

Structure (SMILES)	RA at 10 µM against ß5i of IP [3] [%]	RA at 100 µM against Mtb [4] [%]	also measured
Cc1c(CC(=O)ON2C(=O)CCC2=O)c(=O)oc2cc3occ(C4CCCCC4)c3cc12 [Compound 78]	62	98	
O=C(O)Cc1cc2cc3c(-c4ccccc4)coc3cc2oc1=O [Compound 34]		54	Ki [3]: 3.8 ± 1.1 µM
Cc1cc(-c2coc3cc4oc(=O)c(CCC(=O)ON5C(=O)CCC5=O)c(C)c4cc23)c(C)s1 [Compound 72]		95	IC50 [3]: 1.8 ± 0.8 µM
Cc1c(CCC(=O)O)c(=O)oc2cc3occ(C(C)(C)C)c3cc12 [Compound 19]	83	95	
COc1ccc(-c2coc3cc4oc(=O)c(CCC(=O)O)c(C)c4cc23)cc1 [Compound 17]	84	100	
Cc1c(CC(=O)ON2C(=O)CCC2=O)c(=O)oc2cc3occ(C(C)(C)C)c3cc12 [Compound 75]	53	88	
Cc1c(CCC(=O)ON2C(=O)CCC2=O)c(=O)oc2cc3c(cc12)C(c1ccccc1)CO3 (racemic) [Compound 92]	36	95	
Cc1c(CC(=O)O)c(=O)oc2cc3occ(C(C)(C)C)c3cc12 [Compound 28]	85	97	
Cc1coc2cc3oc(=O)c(CC(=O)ON4C(=O)CCC4=O)c(C)c3cc12 [Compound 76]	101	53	
Cc1c(CCC(=O)O)c(=O)oc2c(C)c3occ(-c4ccccc4)c3cc12 [Compound 35]		100	Ki [3]: 43.1 ± 15 µM
Cc1c(N)c(=O)oc2cc3occ(-c4ccccc4)c3cc12 [Compound 84]	88	100	
Cc1coc2cc3oc(=O)c(CCC(=O)ON4C(=O)CCC4=O)c(C)c3cc12 [Compound 71]	66	97	
Cc1c(CCC=O)c(=O)oc2cc3c(cc12)C(c1ccccc1)CO3 (stereo not shown) [Compound 15]			Reversibility of inhibition [1]: reversible inhibitors; also recorded: Reversible inhibition; α (mixed inhibition model) [2]: 0.22; Type of Inhibition [2]: mixed type of inhibition; Ki ([2]; read-out: Ki): 14.9 µM; IC50 [4]: 5.8 ± 2.1 µM; Hill Coefficient [4]: 0.55
Cc1c(CCC(=O)O)c(=O)oc2cc3occ(-c4ccc(C(=O)O)cc4)c3cc12 [Compound 3]	53		IC50 [4]: 31 ± 5 µM; Hill Coefficient [4]: 1.22
Cc1cc(-c2coc3cc4oc(=O)c(CCC(=O)NCC#N)c(C)c4cc23)c(C)s1 [Compound 48]	109	100	
Cc1c(CC(=O)N(C)CC#N)c(=O)oc2cc3occ(-c4ccco4)c3cc12 [Compound 56]	103	53	
